Measured values as given in US11427869B2, “T cell balance gene expression, compositions of matters and methods of use thereof” (THE BROAD INSTITUTE, INC., priority 2015, dated 2022).

Tested on: Th17 cells
Experiment: Flow cytometry and intracellular cytokine staining of T cells
Format: cell-based, mouse
Method: WT, CD5L−/− and Rorγt−/− Th17 cells were differentiated with TGF-1+IL-6 for 96h. […] Three independent experiments were performed. […] (FIG. 18E) Naïve WT T cells were activated without polarizing cytokines (Th0) and infected with retrovirus expressing Rorγt in the presence of control-RV or CD5L-RV with or without FF-MAS (5 uM) as a source of Rorγt ligand. Each dot represents an independent infection. (FIG. 18F) WT or CD5L−/− naïve cells were differentiated with TGF-β1+IL-6. At 48h, cells were replated in fresh media with either control or FF-MAS (5 uM) as a source of Rorγt ligand. Cells were harvested for FACS analysis 72h later.
T cell differentiation culture. Naïve CD4+CD44−CD62L+CD25− T cells or Effector memory CD4+CD44+CD62L− were sorted using BD FACSAria sorter and activated with plate-bound anti-CD3 and anti-CD28 antibodies (both at 2 μg/ml) in the presence of cytokines at a concentration of 2.5×10^5 cells/ml. For Th17 differentiation: 2 ng/ml of rhTGFβ1, 2 ng/ml of rhTGFβ3, 25 ng/ml rmIL-6, 20 ng/ml rmIL-18 (all from Miltenyi Biotec) and 20 ng/ml rmIL-23 (R & D systems) were used at various combinations as specified in figures. For Th1 differentiation, 20 ng/ml rmIL-12 (R & D systems); for Th2 differentiation 20 ng/ml rmIL-4 (Miltenyi Biotec); for iTreg differentiation, 2.5 ng/ml of rhTGFβ1 were used (Miltenyi Biotec). For differentiation experiments, cells were harvested at 48 hours. For restimulation experiments, cells were differentiated for 48 hours and resuspended in fresh media with no additional cytokines for 48-72 hours. Cells were re-stimulated with PMA/ionomycin for four hours before analysis for cytokines by intracellular cytokine staining. For experiments with exogenous fatty acid, fatty acids were purchased and resuspended first with serum-free media containing BSA prior being added to culture.
Flow cytometry and intracellular cytokine staining. Sorted naïve T cells were stimulated with phorbol 12-myristate 13-acetate (PMA) (50 ng/ml, Sigma-aldrich), ionomycin (1 μg/ml, Sigma-aldrich) and a protein transport inhibitor containing monensin (Golgistop) (BD Biosciences) for 4 h before detection by staining with antibodies.

CC(C)=CCC[C@@H](C)[C@H]1CC=C2C3=C(CC[C@@]21C)[C@@]1(C)CC[C@H](O)C(C)(C)[C@@H]1CC3 [Rorγt ligand, FF-MAS]
IL-17 expression (Th0 cells with ectopic Rorγt expression and CD5L-RV, FF-MAS 5 uM): partially rescued | IL-17 production (non-pathogenic Th17 cells (TGF-β1+IL-6), ligand (FF-MAS 5 uM) added at 48h, FACS 72h later): increased IL-17 production
